In patent US8188085B2, “Antifungal agents” (Merck Sharp & Dohme Corp., priority 2008, dated 2012):
Structures can show the parent of a compound that is named as a salt.

The compounds below were run against glucan synthase (GS) prepared from Candida albicans MY1055 (Candida albicans, UniProt O13428) (assay: Glucan synthase inhibition (polymerization assay, 96-well)). Details: not given.
Type: biochemical
Description: The in vitro evaluation of glucan synthase inhibitory activity of compounds was measured in a polymerization assay in 96-well format. Each well contained 100 μL of ^3H-UDPG at 0.5 mM (6000 to 8000 dpm/nmol), 50 mM HEPES pH 7.5 (Sigma), 10% w/v glycerol (Sigma), 1.5 mg/mL bovine serum albumin (Sigma A 9647. Lot 44H0190), 25 mM KF (Fisher), 1 mM EDTA (Gibco ULTRAPURE), 25 μM GTP-γ-S, enzyme sufficient to give 3 to 6 nmoles incorporation during the 60 min incubation at 22° C., and test compound added from wells in 3-fold serial dilutions in 100% DMSO (1 μL/well). The reaction was stopped by the addition of 100 μL of 20% trichloroacetic acid. Plates were chilled for a minimum of 10 min, and precipitated glucan collected by filtration on GF/C plates (Packard UNIFILTER®-96), washed with 5 cycles of water (about 1 mL/well each cycle) using a Packard FILTERMATE HARVESTER. 40 μL/well scintillation fluid (Packard ULTIMA GOLD TM-XR) was added and the sealed plates counted in a WALLAC BETA counter in top-counting mode at an efficiency of approximately 40%.
Stock solutions were stored at 10 mg/mL in DMSO at −20° C. For each new enzyme preparation, the initial titration performed started at 1 mg/mL, which was prepared by making a 10-fold dilution in DMSO (5 μL to 50 μL). 40 μL of this stock was placed in column 12 of a round-bottomed 96-well microtiter plate. 40 μL DMSO was added to columns 1 to 11 in the same row and ten 3-fold serial dilutions performed, by transferring 20 μL from column 12 to column 11 etc., with 4 mixings before each transfer. No test compound was transferred to from column 2 to column 1. Duplicate aliquots of 1 μL of all 12 dilutions were then transferred to the side walls of a 96-well Bioblock 1.1 mL plate (Fisher brand) to create two rows.
Graphs of the primary data were created in PRISM software (the average of two determinations) using PRISM's curve fitting program (sigmoidal dose response non-linear regression). The amount of compound required to inhibit glucan synthase activity by 50% in this assay (IC50−ng/mL) was calculated.
Routine analysis was performed with glucan synthase (GS) prepared from Candida albicans MY1055 by the following procedure: MY1055 was grown in 10 liters YPD medium (10 g yeast extract, 20 g tryptone, 20 g glucose per liter) with vigorous shaking at 30° C., to early stationary phase. Cells were harvested by centrifugation, the pellet was washed and frozen at −70° C. until breakage. Thawed pellets were shaken with an equal volume of breakage buffer (50 mM HEPES pH 7.4, 10% glycerol, 1 mM EDTA, 1 mM PMSF, 1 mM DTT) and 4 times their weight of 0.5 mm acid washed glass beads for 2 hours at 4° C. Extent of breakage was assessed visually at 40× magnification. After low speed centrifugation to remove cell debris, the supernatant was centrifuged at 100,000×g for 60 min. to separate membranes plus ribosomes from cytoplasmic components. Membranes were further washed two additional times with breakage buffer using the same centrifugation conditions and finally suspended in breakage buffer at 25 to 30 mg/mL protein (Biorad) for storage at −70° C. Extraction of GS activity from membranes was performed at a protein concentration of 5 mg/mL in extraction buffer (50 mM NaPO4 pH 7.5, 0.1 M KCl, 0.1M Na citrate, 20% glycerol, 5 μM GTP-γ-S, 1 mM DTT, 1 mM PMSF, 3 μg/mL pepstatin) plus 0.25% W1 by gentle mixing at 4° C. for 60 min, followed by centrifugation at 100,000×g for 60 min. After centrifugation, clear supernatant was removed from a pellet consisting of a hard layer usually with small amounts of gelatinous unextracted membranes above it.
Trapping was initiated immediately by 5-fold dilution in trapping buffer (50 mM HEPES pH 7.5, 10 mM KF, 1 mM EDTA, 2 mg/mL BSA) plus 2.5 mM UDPG and 10 μM GTP-γ-S. After incubation at 25° C. for 60 to 90 minutes, glucan was harvested by low speed centrifugation (3,000×g, 10 min). […]

glucan synthase (GS) prepared from Candida albicans MY1055, sequence (O13428 1-1897): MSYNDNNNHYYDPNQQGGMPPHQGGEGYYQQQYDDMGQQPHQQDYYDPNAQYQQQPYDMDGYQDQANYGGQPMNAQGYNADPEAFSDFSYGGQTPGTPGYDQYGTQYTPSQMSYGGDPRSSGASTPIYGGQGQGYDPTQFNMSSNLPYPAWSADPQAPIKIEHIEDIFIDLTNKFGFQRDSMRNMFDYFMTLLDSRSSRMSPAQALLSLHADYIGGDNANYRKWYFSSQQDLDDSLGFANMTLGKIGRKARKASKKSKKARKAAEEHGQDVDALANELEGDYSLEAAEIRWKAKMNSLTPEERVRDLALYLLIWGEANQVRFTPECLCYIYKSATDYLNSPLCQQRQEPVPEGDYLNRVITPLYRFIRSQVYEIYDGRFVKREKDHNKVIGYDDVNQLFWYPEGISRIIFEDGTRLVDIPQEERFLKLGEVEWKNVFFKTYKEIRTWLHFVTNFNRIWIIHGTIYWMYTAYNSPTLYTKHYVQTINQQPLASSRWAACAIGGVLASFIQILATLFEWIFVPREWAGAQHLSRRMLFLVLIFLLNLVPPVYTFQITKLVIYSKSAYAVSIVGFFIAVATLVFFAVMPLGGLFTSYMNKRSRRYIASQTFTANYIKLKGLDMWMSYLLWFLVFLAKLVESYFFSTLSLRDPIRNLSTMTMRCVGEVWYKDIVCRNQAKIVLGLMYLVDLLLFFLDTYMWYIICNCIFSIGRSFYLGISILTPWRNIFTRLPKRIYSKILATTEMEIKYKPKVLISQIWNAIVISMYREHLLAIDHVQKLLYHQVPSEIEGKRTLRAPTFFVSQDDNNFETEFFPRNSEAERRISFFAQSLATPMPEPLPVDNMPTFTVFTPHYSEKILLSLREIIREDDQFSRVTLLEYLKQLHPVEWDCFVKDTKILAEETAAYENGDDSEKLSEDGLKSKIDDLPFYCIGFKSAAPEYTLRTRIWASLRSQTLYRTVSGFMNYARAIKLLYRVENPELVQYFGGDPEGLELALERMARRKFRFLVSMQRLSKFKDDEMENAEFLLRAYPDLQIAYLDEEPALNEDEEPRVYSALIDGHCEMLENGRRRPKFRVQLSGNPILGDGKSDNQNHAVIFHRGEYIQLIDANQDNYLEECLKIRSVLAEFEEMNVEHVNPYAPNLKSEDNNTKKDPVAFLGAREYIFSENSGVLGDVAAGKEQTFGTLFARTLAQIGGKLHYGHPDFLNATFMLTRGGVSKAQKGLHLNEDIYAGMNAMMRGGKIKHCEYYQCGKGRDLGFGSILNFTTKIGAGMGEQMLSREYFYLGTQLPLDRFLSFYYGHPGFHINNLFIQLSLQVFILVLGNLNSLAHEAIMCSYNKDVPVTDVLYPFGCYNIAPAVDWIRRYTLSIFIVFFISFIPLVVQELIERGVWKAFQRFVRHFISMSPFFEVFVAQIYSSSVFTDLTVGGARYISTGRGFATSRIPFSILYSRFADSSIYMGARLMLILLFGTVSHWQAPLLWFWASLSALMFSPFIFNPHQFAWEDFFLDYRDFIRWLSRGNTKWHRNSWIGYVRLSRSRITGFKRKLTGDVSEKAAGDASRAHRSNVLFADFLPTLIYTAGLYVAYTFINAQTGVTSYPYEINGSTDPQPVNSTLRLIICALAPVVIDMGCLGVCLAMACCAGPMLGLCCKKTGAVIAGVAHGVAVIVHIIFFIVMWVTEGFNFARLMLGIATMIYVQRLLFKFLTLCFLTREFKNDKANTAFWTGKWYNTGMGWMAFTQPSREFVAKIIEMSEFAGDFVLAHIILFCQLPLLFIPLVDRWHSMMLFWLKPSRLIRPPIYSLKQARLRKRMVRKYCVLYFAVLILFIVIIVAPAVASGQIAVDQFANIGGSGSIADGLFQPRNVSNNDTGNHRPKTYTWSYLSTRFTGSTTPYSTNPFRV

Row | Structure (SMILES) | IC50 [nM]
1 | CC(C)[C@@H](C)[C@@]1(C)CC[C@]2(C)[C@H]3CC[C@@H]4[C@@]5(COC[C@@]4(C)[C@@H](OC[C@](C)(N)C(C)(C)C)[C@H](n4ncnc4-c4ccc[n+](C)c4)C5)C3=CC[C@@]2(C)[C@@H]1C(=O)O [Example 264, (1S,4aR,6aS,7R,8R,10aR,10bR,12aR,14R,15R)-15-[[(2R)-2-amino-2,3,3-trimethylbutyl]oxy]-8-[(1R)-1,2-dimethylpropyl]-14-[5-(1-methyl-3-pyridiniumyl)-1H-1,2,4-triazol-1-yl]-1,6,6a,7,8,9,10,10a,10b,11,12,12a-dodecahydro-1,6a,8,10a-tetramethyl-4H-1,4a-propano-2H-phenanthro[1,2-c]pyran-7-carboxylic acid trifluoroacetate] | 0.403

Same assay, conditions: GS from C. albicans MY1055; 60 min incubation at 22° C.; read-out: Candida Albicans GS IC50 (converted)

Row | Structure (SMILES) | IC50 [nM]
2 | CC(C)[C@@H](C)[C@@]1(C)CC[C@]2(C)[C@H]3CC[C@@H]4[C@@]5(COC[C@@]4(C)[C@@H](OC[C@](C)(N)C(C)(C)C)[C@H](n4ncnc4-c4ccc(CN)cc4)C5)C3=CC[C@@]2(C)[C@@H]1C(=O)O [Example 178, (1S,4aR,6aS,7R,8R,10aR,10bR,12aR,14R,15R)-14-[5-[4-(aminomethyl)phenyl]-1H-1,2,4-triazol-1-yl]-15-[[(2R)-2-amino-2,3,3-trimethylbutyl]oxy]-8-[(1R)-1,2-dimethylpropyl]-1,6,6a,7,8,9,10,10a,10b,11,12,12a-dodecahydro-1,6a,8,10a-tetramethyl-4H-1,4a-propano-2H-phenanthro[1,2-c]pyran-7-carboxylic acid] | 1.06
3 | CC(C)[C@@H](C)[C@@]1(C)CC[C@]2(C)[C@H]3CC[C@@H]4[C@@]5(COC[C@@]4(C)[C@@H](OC[C@](C)(N)C(C)C)[C@H](n4nc(N)nc4C(N)=O)C5)C3=CC[C@@]2(C)[C@@H]1C(=O)O [Example 119, (1S,4aR,6aS,7R,8R,10aR,10bR,12aR,14R,15R)-14-[3-amino-5-(aminocarbonyl)-1H-1,2,4-triazol-1-yl]-15-[[(2R)-2-amino-2,3-dimethylbutyl]oxy]-8-[(1R)-1,2-dimethylpropyl]-1,6,6a,7,8,9,10,10a,10b,11,12,12a-dodecahydro-1,6a,8,10a-tetramethyl-4H-1,4a-propano-2H-phenanthro[1,2-c]pyran-7-carboxylic acid] | 12.9
4 | CC(C)[C@@H](C)[C@@]1(C)CC[C@]2(C)[C@H]3CC[C@@H]4[C@@]5(COC[C@@]4(C)[C@@H](OC[C@](C)(N)C(C)C)[C@H](n4ncnc4C(=O)NCCN(C)C)C5)C3=CC[C@@]2(C)[C@@H]1C(=O)O [Example 83, (1S,4aR,6aS,7R,8R,10aR,10bR,12aR,14R,15R)-15-[[(2R)-2-amino-2,3-dimethylbutyl]oxy]-14-[5-[[[2-(dimethylamino)ethyl]amino]carbonyl]-1H-1,2,4-triazol-1-yl]-8-[(1R)-1,2-dimethylpropyl]-1,6,6a,7,8,9,10,10a,10b,11,12,12a-dodecahydro-1,6a,8,10a-tetramethyl-4H-1,4a-propano-2H-phenanthro[1,2-c]pyran-7-carboxylic acid] | 12
5 | CC(C)[C@@H](C)[C@@]1(C)CC[C@]2(C)[C@H]3CC[C@@H]4[C@@]5(COC[C@@]4(C)[C@@H](OC[C@](C)(N)C(C)C)[C@H](n4ncnc4-c4ccc(O)nc4)C5)C3=CC[C@@]2(C)[C@@H]1C(=O)O [Example 199, (1S,4aR,6aS,7R,8R,10aR,10bR,12aR,14R,15R)-15-[[(2R)-2-amino-2,3-dimethylbutyl]oxy]-8-[(1R)-1,2-dimethylpropyl]-14-[5-(6-hydroxy-3-pyridinyl)-1H-1,2,4-triazol-1-yl]-1,6,6a,7,8,9,10,10a,10b,11,12,12a-dodecahydro-1,6a,8,10a-tetramethyl-4H-1,4a-propano-2H-phenanthro[1,2-c]pyran-7-carboxylic acid] | 0.546
6 | CC(C)[C@@H](C)[C@@]1(C)CC[C@]2(C)[C@H]3CC[C@@H]4[C@@]5(COC[C@@]4(C)[C@@H](OC[C@@](C)(C(C)C)N(C)C)[C@H](n4cncn4)C5)C3=CC[C@@]2(C)[C@@H]1C(=O)O [Example 18, (1S,4aR,6aS,7R,8R,10aR,10bR,12aR,14R,15R)-15-[[(2R)-2-(dimethylamino)-2,3-dimethylbutyl]oxy]-8-[(1R)-1,2-dimethylpropyl]-14-(1H-1,2,4-triazol-1-yl)-1,6,6a,7,8,9,10,10a,10b,11,12,12a-dodecahydro-1,6a,8,10a-tetramethyl-4H-1,4a-propano-2H-phenanthro[1,2-c]pyran-7-carboxylic acid] | 12
7 | CN[C@@](C)(CO[C@H]1[C@H](n2cnc(N)n2)C[C@@]23COC[C@]1(C)[C@@H]2CC[C@H]1C3=CC[C@@]2(C)[C@H](C(=O)O)[C@@](C)([C@H](C)C(C)C)CC[C@]12C)C(C)C [Example 5, (1S,4aR,6aS,7R,8R,10aR,10bR,12aR,14R,15R)-14-(3-amino-1H-1,2,4-triazol-1-yl)-15-[[(2R)-2,3-dimethyl-2-(methylamino)butyl]oxy]-8-[(1R)-1,2-dimethylpropyl]-1,6,6a,7,8,9,10,10a,10b,11,12,12a-dodecahydro-1,6a,8,10a-tetramethyl-4H-1,4a-propano-2H-phenanthro[1,2-c]pyran-7-carboxylic acid] | 12
8 | CC(C)[C@@H](C)[C@@]1(C)CC[C@]2(C)[C@H]3CC[C@@H]4[C@@]5(COC[C@@]4(C)[C@@H](OC[C@](C)(N)C(C)(C)C)[C@H](n4ncnc4-c4ccc(C(=O)O)cc4)C5)C3=CC[C@@]2(C)[C@@H]1C(=O)O [Example 235, (1S,4aR,6aS,7R,8R,10aR,10bR,12aR,14R,15R)-15-[[(2R)-2-amino-2,3,3-trimethylbutyl]oxy]-14-[5-(4-carboxyphenyl)-1H-1,2,4-triazol-1-yl]-8-[(1R)-1,2-dimethylpropyl]-1,6,6a,7,8,9,10,10a,10b,11,12,12a-dodecahydro-1,6a,8,10a-tetramethyl-4H-1,4a-propano-2H-phenanthro[1,2-c]pyran-7-carboxylic acid] | 6.47
9 | CC(C)[C@@H](C)[C@@]1(C)CC[C@]2(C)[C@H]3CC[C@@H]4[C@@]5(COC[C@@]4(C)[C@@H](OC[C@](C)(N)C(C)C)[C@H](n4ncnc4-c4ccoc4)C5)C3=CC[C@@]2(C)[C@@H]1C(=O)O [Example 144, (1S,4aR,6aS,7R,8R,10aR,10bR,12aR,14R,15R)-15-[[(2R)-2-amino-2,3-dimethylbutyl]oxy]-8-[(1R)-1,2-dimethylpropyl]-14-[5-(3-furanyl)-1H-1,2,4-triazol-1-yl]-1,6,6a,7,8,9,10,10a,10b,11,12,12a-dodecahydro-1,6a,8,10a-tetramethyl-4H-1,4a-propano-2H-phenanthro[1,2-c]pyran-7-carboxylic acid] | 8.51
10 | COC(=O)c1cnnn1[C@@H]1C[C@@]23COC[C@](C)([C@@H]2CC[C@H]2C3=CC[C@@]3(C)[C@H](C(=O)O)[C@@](C)([C@H](C)C(C)C)CC[C@]23C)[C@H]1OC[C@](C)(N)C(C)C (single isomer, unassigned) [Example 289B] | 126
